Experimental findings from publication PMC8379256, “A xanthene derivative, DS20060511, attenuates glucose intolerance by inducing skeletal muscle-specific GLUT4 translocation in mice” (Communications Biology, 2021) are described below.

Series [1] concerns human liver microsomal fraction. As to the kind of experiment: Metabolic stability in human liver microsomes. The format is in vitro ADME. Conditions: after 1 h incubation, 1 μM. On the procedure: C57BL/6 mice that had been denied access to food overnight received the indicated oral dose of DS20060511, and blood samples were collected from the tail vein at the indicated timepoints. Plasma samples for quantitation of DS20060511 were prepared by centrifugation. Another group of mice received oral administration DS20060511 (30 mg kg^−1) and euthanized 75 min later. The soleus and gastrocnemius muscles, heart, and inguinal WAT were removed and homogenized in water (5 vol.) for quantitation of the drug concentrations. Plasma samples and tissue homogenates were analyzed by LC-MS/MS (Nexera MP System, SHIMADZU, Kyoto, Japan; API4000 System, SCIEX, Framingham, MA). The tissue concentrations of the compound were calculated by assuming the volume of 1 g of tissue is 1 mL. Evaluation of the metabolic stability of the compound to mouse and human cytochrome P450 (CYP) was conducted as follows. […] The results were expressed as the amount of compound remaining (expressed as a percentage), based on the ratio of the relative area to that in the control (without reaction).
For orientation: Liver microsomes are a subcellular fraction often used to study metabolism.

The test system of another series is GLUT4. The series is described as follows: GLUT4 protein in plasma membrane fraction of triceps surae muscle (immunoblot). It counts as in vivo, mouse. Particulars: DS20060511 10 mg kg−1 or insulin 5 U kg−1 via inferior vena cava, 10 min; Fig. 2e. As to the method: The plasma membrane fraction of each skeletal muscle specimen was prepared as described previously[48],[49]. Briefly, the triceps surae muscle was homogenized in Buffer A (20 mM HEPES, 1 mM EDTA, 1 mM PMSF, and protease inhibitor) containing 250 mM sucrose on ice. The muscle homogenate was centrifuged at 2000 × g for 10 min at 4 °C to remove any unhomogenized muscle fibers. The supernatant was then centrifuged at 19,000 × g for 20 min at 4 °C. The pellet was resuspended in 3 mL Buffer A, layered on a 6 mL sucrose cushion (38% sucrose in Buffer A) and centrifuged at 100,000 × g for 60 min at 4 °C. The membrane fraction recovered on top of the sucrose cushion was resuspended in Buffer A and centrifuged at 40,000 × g for 20 min at 4 °C. The pellet was designated as the plasma membrane fraction and subjected to immunoblotting.
Phosphorylated or total protein of IRβ and IRS1 was resolved on 7% SDS-PAGE and analyzed using specific antibodies against IRβ, IRS1, and phosphotyrosine. […] Bound antibodies were detected with HRP-conjugated secondary antibodies using ECL detection reagents (GE Healthcare, Chicago, IL).
In general terms: Immunoblotting shows a protein as a band on a membrane.

The test system of a further series is WT and eNOSKO mice. The series is described as follows: ITT in wild-type and eNOS-knockout mice. The format is in vivo, mouse. Particulars: for Blood glucose: Insulin tolerance test, individual animals. As to the method:
Fig. 7 DS20060511 treatment decreases blood glucose levels in both WT and eNOSKO mice during oral GTT and ITT. a, b Blood glucose levels during oral GTT in wild-type (WT, n = 5) and eNOS-knockout (KO, n = 5–6) mice. Mice received vehicle or DS20060511 (10 mg kg^−1) orally 15 min before the glucose administration (3.0 g kg^−1). c, d Blood glucose levels during ITT in WT (n = 4) and KO (n = 5) mice. […] Values shown are means ± SEM. *P < 0.05, **P < 0.01, ***P < 0.001 vs. vehicle by the t-test.
C57BL/6 and db/db mice were purchased from CLEA Japan, Tokyo, Japan. GLUT4- knockout mice were generated at RIKEN BioResource Center, Tsukuba, Japan, according to a previously described method. eNOS-knockout mice were kindly provided by Dr. Masato Tsutsui[41],[42]. The mice were group-housed under controlled illumination (12:12 h light-dark cycle) and temperature (23 ± 2 °C) conditions and given free access to normal chow and water, unless otherwise specified. The HFD-fed obese mice were prepared by feeding C57BL/6 mice a HFD for at least 8 weeks from 6 weeks of age. […] Male mice were used for all the experiments in this study. The animal care and experimental procedures used in the study were approved by The University of Tokyo Animal Care Committee (Approval number: 27-3), and the study was carried out in accordance with the Animal Experimentation Guidelines of Daiichi Sankyo Co., Ltd (Approved number: 20000411).
Mice received the indicated oral dose of DS20060511 or vehicle at the same time as the intraperitoneal injection of insulin (Humulin) at the indicated dose. Blood glucose levels were measured using Glutest Every in blood samples collected from the tail vein at the indicated timepoints.

Each structure is given as a SMILES string. “And” between values parts separate entries of the source, which are not always exact repeats. Equal values may be shown once.

Take `COc1ccc2c(C)c(C(=O)O)ccc2c1C1C2=C(CC(C)(C)CC2=O)OC2=C1C(=O)CC(C)(C)C2` [DS20060511]: in series [1], the compound remaining was found to be 79%. For the same compound, in the series on GLUT4, the “GLUT4 protein expression levels in the plasma membrane fraction of skeletal muscles” value was “increased GLUT4 protein expression levels in the plasma membrane fraction”. For the same compound, the Blood glucose was 176 mg/dL and 163 mg/dL and 183 mg/dL and 182 mg/dL with WT and eNOSKO mice (Wildtype, 10 mg/kg, 0 min); 96 mg/dL and 77 mg/dL and 89 mg/dL and 88 mg/dL with WT and eNOSKO mice (Wildtype, 10 mg/kg, 20 min); 60 mg/dL and 67 mg/dL and 74 mg/dL with WT and eNOSKO mice (Wildtype, 10 mg/kg, 40 min); 58 mg/dL and 71 mg/dL and 70 mg/dL and 52 mg/dL with WT and eNOSKO mice (Wildtype, 10 mg/kg, 60 min); 57 mg/dL and 67 mg/dL and 68 mg/dL and 53 mg/dL with WT and eNOSKO mice (Wildtype, 10 mg/kg, 80 min); 63 mg/dL and 84 mg/dL and 67 mg/dL and 58 mg/dL with WT and eNOSKO mice (Wildtype, 10 mg/kg, 100 min). For the same compound, the Blood glucose in the series with WT and eNOSKO mice (Wildtype, 10 mg/kg, 120 min) was 57 mg/dL and 74 mg/dL and 70 mg/dL; in the series with WT and eNOSKO mice (eNOSKO, 30 mg/kg, 0 min) it was 191 mg/dL and 175 mg/dL and 168 mg/dL and 169 mg/dL; in the series with WT and eNOSKO mice (eNOSKO, 30 mg/kg, 20 min), 95 mg/dL and 89 mg/dL and 100 mg/dL and 120 mg/dL and 97 mg/dL; with WT and eNOSKO mice (eNOSKO, 30 mg/kg, 40 min), 69 mg/dL and 75 mg/dL and 81 mg/dL and 76 mg/dL; in the series on WT and eNOSKO mice (eNOSKO, 30 mg/kg, 60 min), 61 mg/dL and 64 mg/dL and 40 mg/dL and 41 mg/dL and 51 mg/dL; in the series on WT and eNOSKO mice (eNOSKO, 30 mg/kg, 80 min), 66 mg/dL and 55 mg/dL and 39 mg/dL and 48 mg/dL. For the same compound, the Blood glucose was 72 mg/dL and 53 mg/dL and 35 mg/dL and 34 mg/dL and 39 mg/dL with WT and eNOSKO mice (eNOSKO, 30 mg/kg, 100 min); 76 mg/dL and 49 mg/dL and 55 mg/dL and 37 mg/dL and 39 mg/dL in the series with WT and eNOSKO mice (eNOSKO, 30 mg/kg, 120 min). The “blood glucose levels during ITT (in words)” value in the series with WT and eNOSKO mice (WT and eNOSKO mice, 30 mg kg−1 po with 0.5 U kg−1 insulin ip) was “reduced even further”.
